Results reported in publication PMC10608985, “Retention Behavior of Anticancer Thiosemicarbazides in Biomimetic Chromatographic Systems and In Silico Calculations” (Molecules, 2023).

Columns and labels:
[1] = parameters: method as in Kozyra et al. [31]; conditions: MeOH/20 mM acetate buffer, pH 7.4, ref Kozyra et al. [31], cited from earlier work; for log kw C-18: intercept of Soczewiński–Wachtmeister equation (water as mobile phase); for -S C-18: slope of Soczewiński–Wachtmeister equation
[2] = HPLC lipophilicity on cholesterol (Chol) stationary phase; assay type: physicochemical; conditions: pH 7.4; for Log k Chol: Table S3; for log kw Chol: intercept, linear extrapolation to water; for log kw Chol / -S Chol: MeOH/20 mM acetate buffer; for -S Chol: slope of Soczewiński–Wachtmeister equation
Method: (§1) For the evaluation of the compounds the following stationary phases were used: C-18; biomimetic, IAM; cholesterol (Chol); immobilized proteins HSA and AGP. For the lipophilicity determination, MeOH (C-18, Chol) or ACN (IAM) were applied as the organic modifiers. The measurements were performed at pH 7.4 of the mobile phase. The regular changes in the retention of all solutes used as organic modifier content in the mobile phase on three studied stationary phases were found. It is expressed by the Soczewiński–Wachtmeister Equation (1):log k = log kw + S (% organic modifier)(1) where log kw—the intercept; S—the slope of regression curve. […] Log kw as well as S parameters are commonly applied as lipophilicity descriptors.
(§2) HPLC measurements were performed using a liquid chromatograph Knauer (Knauer, Berlin, Germany) with a dual pump, a 20 µL simple injection valve, and a UV–visible detector. The compounds were detected under UV light at 280 nm at room temperature. The retention time of an unretained solute (t0) was determined by the injection of a small amount of citric acid dissolved in water.
Cogent 4 UDC Cholesterol (150 × 2.1 mm, 4 µm) MicroSolv Technology Corporation (Leland, NC, USA) column was used. The mobile phase consisted of different volume mixtures of MeOH as the organic modifier and 20 mM acetate buffer as the aqueous phase, to obtain pH = 7.4. The concentrations of the organic modifier were in the range from 0.3 to 0.8 (v/v) with step 0.05 or 0.1 (Table S3 in the Supplementary Materials). The flow rate was 0.35 mL × min^−1.

[3] = molecular target: T1, human serum albumin (HSA) (Homo sapiens, UniProt P02768); experiment: HPLC on immobilized HSA column, affinity and % plasma–protein binding; assay type: in vitro ADME; conditions: for log K HSA: binding equilibrium constant from calibration curve (Equation 8) of log k HSA; for fraction unbound: human, pH 7.4, % plasma–protein binding converted from log K HSA (Equation 10), read-out: %PPB HSA (converted); for log k HSA: retention on HSA column, 50 mM ammonium acetate pH 7.4 / propan-2-ol 85/15 (v/v)
T1 construct: purchased Chiralpac
Method: (§3) Measurements on HSA and AGP immobilized protein columns were carried out with […] isopropanol content in the aqueous mobile phase.
(§4) The standard calibration curve was used to predict log K values (K—binding equilibrium constant) of investigated compounds to HSA and AGP. Next, the log K values were converted into a percentage of plasma–protein binding (%PPB) of the compounds (Table 2). […] It is the lowest for compound 16 with -NO2 substituent, unsubstituted compound 1, and fluorine derivatives 2 and 9. In a group of […] derivatives in the same position of the phenyl ring, the %PPB to AGP increases with the increase in the atomic weight of the halogen atom and the lipophilicity of the molecule.
as §2
(§5) A human serum albumin (HSA) immobilized on the 5 µm silica gel column 100 × 3 mm (Chiralpac) and an α1-acid glycoprotein (AGP) immobilized on the 5 µm silica gel column 100 × 4 mm (Chiralpac) were used. The compounds were dissolved at 0.5 mg/mL concentration in 50% propan-2-ol and ammonium acetate solution (pH = 7.4) mixtures for HSA measurements. The mobile phase was composed of 50 mM ammonium acetate solution (pH = 7.4) and propan-2-ol at 85/15 (v/v) for AGP, respectively. The flow of mobile phases was 0.5 mL×min^−1. Log k values for the selected mobile phase were determined for all studied compounds and standard substances. The % protein plasma binding (% PPB) values were calculated from the calibration curve according to Valko et al..
(§6) Calibration of the protein columns: The column performance check and the calibration check were performed before measurements. The racemic mixture of warfarin was used for their performance evaluation. The following calibration set of drugs was applied: bromazepam, carbamazepine, diclofenac, nicardipine, nizatidine, piroxicam for HSA and bromazepam, chlorpromazine, imipramine, nicardipine, nizatidine, propranolol, and warfarin for AGP. The analytical standards were purchased from Sigma Aldrich Steinhen, Steinheim am Albuch, Germany). The drugs were dissolved at 0.5 mg/mL concentration in 50% propan-2-ol and ammonium acetate solution mixtures (pH = 7.4). The obtained log k values from HPLC were plotted against the log K values (K—binding equilibrium constant, log K—linearized PPB) based on the literature data for plasma–protein binding (%, PPB). The following relationships were obtained: log KHSA = 0.2513 (±0.0984) + 1.0525 (±0.1171) log k HSA(8) n=6, R=0.9761, R^2 = 0.9528, Radj2 = 0.9410, s = 0.1948 log KAGP = 0.1733 (±0.0574) + 0.8902 (±0.0787) log k AGP(9) n=7, R=0.9810, R^2 = 0.9623, Radj2 = 0.9548, s = 0.1113
(§7) Log K values were converted into %PPB using the following equation [15]:(10) %PPB=101×10^logK/1+10^logK

[4] = HPLC lipophilicity on IAM (immobilized artificial membrane, phosphatidylcholine) stationary phase; assay type: physicochemical; conditions: pH 7.4; for Log k IAM: Table S2; for log kw IAM: intercept, linear extrapolation to water; for log kw IAM / -S IAM: ACN/20 mM phosphate buffer; for -S IAM: slope of Soczewiński–Wachtmeister equation
Method: as §1, §2
A Rexchrom IAM.PC.DD2 (12 μm, 100 × 4.6 mm, 300 Å) (Regis Technologies, Morton Grove, IL, USA) column was used as the stationary phase. The compounds were dissolved at a concentration of 0.5 mg × mL^−1 in MeOH. The mobile phases consisted of different volume fractions of ACN and 20 mM phosphate buffer; the aqueous phase maintained a pH = 7.4 (0.02 M KH2PO4, Na2HPO4 and 0.15 M KCl). The acetonitrile concentration ranged from 0.05 to 0.4 (v/v), depending on the structure of compound, at 0.05 intervals (Table S2 in the Supplementary Materials). The flow rate was 1 mL × min^−1.

[5] = test system: α1-acid glycoprotein (AGP); experiment: HPLC on immobilized AGP column, affinity and % plasma–protein binding; assay type: in vitro ADME, human; conditions: for log K AGP: binding equilibrium constant from calibration curve (Equation 9) of log k AGP; for fraction unbound: human, pH 7.4, % plasma–protein binding converted from log K AGP (Equation 10), read-out: %PPB AGP (converted); for log k AGP: retention on AGP column, 50 mM ammonium acetate pH 7.4 / propan-2-ol 85/15 (v/v)
Method: as §3, §4, §2, §5, §6, §7

T1 sequence (P02768 25-609): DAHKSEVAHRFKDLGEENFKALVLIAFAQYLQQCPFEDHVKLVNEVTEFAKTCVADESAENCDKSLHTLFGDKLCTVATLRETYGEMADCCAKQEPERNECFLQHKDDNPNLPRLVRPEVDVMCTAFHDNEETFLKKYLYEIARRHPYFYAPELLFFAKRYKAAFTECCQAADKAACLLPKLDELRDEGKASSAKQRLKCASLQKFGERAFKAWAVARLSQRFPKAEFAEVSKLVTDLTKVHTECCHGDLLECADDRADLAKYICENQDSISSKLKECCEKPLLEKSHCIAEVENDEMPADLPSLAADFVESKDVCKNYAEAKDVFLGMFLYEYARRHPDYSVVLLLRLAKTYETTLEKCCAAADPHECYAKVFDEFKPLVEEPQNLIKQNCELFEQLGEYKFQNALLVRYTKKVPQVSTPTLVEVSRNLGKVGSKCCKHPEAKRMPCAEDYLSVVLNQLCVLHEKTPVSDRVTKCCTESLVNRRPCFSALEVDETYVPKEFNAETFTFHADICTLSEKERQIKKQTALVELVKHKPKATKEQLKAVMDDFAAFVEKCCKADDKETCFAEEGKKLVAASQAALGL

SMILES | log kw C-18 [1] | -S C-18 [1] | Log k Chol ([2]; MeOH 0.40 v/v in mobile phase) | Log k Chol ([2]; MeOH 0.45 v/v in mobile phase) | Log k Chol ([2]; MeOH 0.50 v/v in mobile phase) | Log k Chol ([2]; MeOH 0.60 v/v in mobile phase) | Log k Chol ([2]; MeOH 0.80 v/v in mobile phase) | log kw Chol [2] | -S Chol [2] | log K HSA [3] | log k HSA [3] | Log k IAM ([4]; ACN 0.15 v/v in mobile phase) | Log k IAM ([4]; ACN 0.20 v/v in mobile phase) | Log k IAM ([4]; ACN 0.25 v/v in mobile phase) | Log k IAM ([4]; ACN 0.30 v/v in mobile phase) | Log k IAM ([4]; ACN 0.35 v/v in mobile phase) | log kw IAM [4] | -S IAM [4] | log K AGP [5] | fraction unbound [5] | other results
O=C(COc1ccccc1)NNC(=S)Nc1cccc(F)c1 [Compound 5] | 2.4592 | 4.7921 | 0.699 | 0.487 | 0.184 | -0.057 | -1.065 | 2.4598 | 4.3726 | 1.1581 | 0.8615 | 0.565 | 0.312 | 0.024 | -0.274 | -0.441 | 1.4283 | 5.5312 | 0.5586 | 0.209 | Log k Chol ([2]; MeOH 0.35 v/v in mobile phase): 0.957; fraction unbound [3]: 0.056; Log k IAM ([4]; ACN 0.05 v/v in mobile phase): 1.193; Log k IAM ([4]; ACN 0.10 v/v in mobile phase): 0.876; log k AGP [5]: 0.4328
O=C(COc1ccccc1)NNC(=S)Nc1cccc(Cl)c1 [Compound 6] | 2.7672 | 4.8532 | 1.016 | 0.766 | 0.422 | 0.160 | -0.975 | 2.9670 | 4.8849 | 1.3217 | 1.0170 | 0.982 | 0.647 | 0.333 | -0.082 | -0.247 | 1.9101 | 6.3395 | 0.6152 | 0.187 | Log k Chol ([2]; MeOH 0.35 v/v in mobile phase): 1.270; fraction unbound [3]: 0.036; Log k IAM ([4]; ACN 0.10 v/v in mobile phase): 1.270; log k AGP [5]: 0.4964
O=C(COc1ccccc1)NNC(=S)Nc1cccc(Br)c1 [Compound 7] | 2.8451 | 4.8454 | 1.284 | 0.913 | 0.720 | 0.347 | -0.987 | 3.4508 | 5.4314 | 2.2501 | 1.8991 | 1.120 | 0.777 | 0.413 | -0.038 | -0.196 | 2.1389 | 6.8947 | 0.6968 | 0.159 | Log k Chol ([2]; MeOH 0.70 v/v in mobile phase): -0.309; log k AGP [5]: 0.5881
O=C(COc1ccccc1)NNC(=S)Nc1cccc(I)c1 [Compound 8] | 3.0072 | 4.9651 | 1.443 | 1.026 | 0.834 | 0.522 | -0.984 | 3.7019 | 5.6623 | 2.1342 | 1.7890 | 1.304 | 0.952 | 0.573 | 0.088 | -0.074 | 2.3083 | 6.9157 | 0.8556 | 0.114 | Log k Chol ([2]; MeOH 0.70 v/v in mobile phase): -0.165; Log k IAM ([4]; ACN 0.40 v/v in mobile phase): -0.404; log k AGP [5]: 0.7664
